Measurements taken from patent US20140303152A1, “BENZOTHIAZINETHIONE DERIVATIVES AND PREPARATION METHODS AND USES THEREOF” (SICHUAN UNIVERSITY, priority 2011, published 2014).
Values after ≈ are worked out from the molar mass of the structure shown. Values joined by “and” are separate entries in the source; they are usually repeats but may differ in a detail not shown here. Equal entries are not always repeated. Where two headings read alike, the source gives them in different places.

Legend:
[1] = system: mycobacterium tuberculosis H37Rv; assay: In vitro inhibition test on Mycobacterium tuberculosis (H37Rv); assay type: cell-based; details: for MIC99 / MIC90: Mycobacterium tuberculosis; for MIC99: 264 h; for inhibitory effects on mycobacterium tuberculosis (H37Rv): result in words
[2] = system: 293 cells; assay: Cytotoxicity test (MTT method); assay type: cell-based; details: Homo sapiens
[3] = system: Mycobacterium tuberculosis (H37Ra); assay: In vitro inhibition test on Mycobacterium tuberculosis (H37Ra); assay type: cell-based
[4] = system: Bacillus Calmette Guerin (BCG); assay type: in vivo, BABL/C mice; details: for Colony count results after treatment for 28 days (spleens and lungs): BCG-infected mice, FIG. 1; for Lung pathological examination, anti-BCG infection treatment effects: HE staining, FIG. 2
[5] = Acute toxicity test of compound If, blood biochemical detection; assay type: in vivo; parameters: Blood urea nitrogen / Total cholesterol / Creatine kinase / Creatinine / Blood glucose / Triglyceride / Total bilirubin / Alanine aminotransferase / Aspartate aminotransferase: unit not given here
Experimental: • 1. Experimental method, 1) If, intraperitoneal suspension, at dose of 2.5 g/kg; 2) adjuvant: 1% sodium carboxymethylcellulose (CMC-Na), 1% tween-80; 3) 10 BABL/C male and female mice, 6-8 weeks old, and weight of 20±2 g. The 10 mice were randomly divided into 2 groups, 5 mice for each group, and a solvent control group is set. Single intraperitoneal injection of 2.5 g/kg was given to the (1) drug group and (2) solvent control group within 24 h; physical signs, behavioral activities, glandular secretion, breath, stool, genitals, death and other poisoning manifestations of the mice were constantly observed every 4 h after administration, and the mice were killed after observation for 24 h, 5) blood was taken from eyeballs, and then the mice were killed, 800 μl whole blood was taken, centrifuged at 1300 r/min for 15 min, and 200 μl supernatant serum was taken for blood biochemical detection, including the following evaluation indicators: aspartate aminotransferase (AST), alanine aminotransferase (ALT), creatine kinase (CK), alkaline phosphatase (ALP), blood urea nitrogen (BUN), total protein (TP), albumin (Alb), blood glucose (GLU), total bilirubin (T-BIL), creatinine (Crea), total cholesterol (Chol) and triglyceride (TG), with 12 items in total. • 2.

[6] = H37Rv, generally observed 11 days after inoculation, read-out: MIC99
[7] = H37Rv, generally observed 5-7 days after inoculation, read-out: MIC90
[8] = HEK293, 293 cells, MTT, 48 h, read-out: IC50
[9] = high dose group, 75 mg/kg i.p. once every day
[10] = low dose group, 25 mg/kg i.p. once every day
[11] = serum of individual mice 6-10, If 2.5 g/kg i.p., 24 h

Row | SMILES | MIC99 [1, 6] | MIC90 [1, 7] | IC50 [2, 8] | MIC90 ([1]; H37RV) | MIC99 ([1]; H37RV) | IC50 ([2]; HEK293, 48 h) | IC90 [3] | inhibitory effects on mycobacterium tuberculosis (H37Rv) [1] | also measured
1 | Fc1cc2c(=S)nc(Nc3ccc(Br)cn3)sc2c(F)c1F [Ia, 2-(5-bromopyridine-2-amino)-6,7,8-trifluoro-4H-benzo[e][1,3]thiazine-4-thione] | 16 µg/mL (≈ 39.6 µM) | 8 µg/mL (≈ 19.8 µM) | > 500 µM |  |  |  |  |  | 
2 | O=[N+]([O-])c1cc([N+](=O)[O-])c2sc(N3CCCCC3)nc(=S)c2c1 [Ie, 6,8-dinitro-2-(piperidine-1-alkyl)-4H-benzo[e][1,3]thiazine-4-thione] |  |  |  | 1 µg/mL (≈ 2.84 µM) | 4 µg/mL (≈ 11.4 µM) | > 500 µM |  |  | 
3 | CNc1nc(=S)c2cc([N+](=O)[O-])cc([N+](=O)[O-])c2s1 [Id, 2-(methylamino)-6,8-dinitro-4H-benzo[e][1,3]thiazine-4-thione] |  |  |  | 2 µg/mL (≈ 6.7 µM) | 4 µg/mL (≈ 13.4 µM) | > 500 µM |  |  | 
4 | O=[N+]([O-])c1cc([N+](=O)[O-])c2sc(Nc3ccc(C(F)(F)F)cc3)nc(=S)c2c1 [Ib, 6,8-dinitro-2-(4-(trifluoromethyl)anilino)-4H-benzo[e][1,3]thiazine-4-thione] |  |  |  | 4 µg/mL (≈ 9.34 µM) | 16 µg/mL (≈ 37.4 µM) | > 500 µM |  |  | 
5 | O=[N+]([O-])c1cc(C(F)(F)F)cc2c(=S)nc(N3CCC4(CC3)OCCO4)sc12 [Compound If, 8-nitro-2-(1,4-dio-8-aza[4.5]dec-8-yl)-6-(trifluoromethyl)-4H-benzo[e][1,3]thiazine-4-thione] | 0.0312 µg/mL (≈ 0.0721 µM) | 0.0312 µg/mL (≈ 0.0721 µM) | > 500 µM |  |  |  | 0.1 µM | equivalent to or even better than those of isoniazide | Colony count results after treatment for 28 days (spleens and lungs) [4, 9]: slightly inferior to those of isoniazide, but obviously superior to those of the model group; Lung pathological examination, anti-BCG infection treatment effects [4, 9]: equivalent to those of the isoniazide (positive) control group; Colony count results after treatment for 28 days (spleens and lungs) [4, 10]: inhibitory effects on BCG growth of mouse spleens and lungs; Lung pathological examination, anti-BCG infection treatment effects [4, 10]: obviously superior to those of the solvent group, but inferior to the isoniazide (positive) control group and the If high dose group; acute toxicity ([5]; 2.5 g/kg single intraperitoneal injection, mice, observation 24 h): no obvious acute toxicity; Alanine aminotransferase [5, 11]: 10 and 16 (2×) and 12 and 11; Albumin [5, 11]: 31.5 and 34.0 and 33.1 and 33.4 and 32.2; Alkaline phosphatase [5, 11]: 166 and 134 and 156 and 175 and 165; Aspartate aminotransferase [5, 11]: 145 and 148 and 149 and 156 and 169; Blood glucose [5, 11]: 6.3 and 4.3 and 4.9 and 4.5 and 5.1; Blood urea nitrogen [5, 11]: 6.7 and 5.5 and 6.3 and 8.9 and 7.9; Creatine kinase [5, 11]: 67 and 54 and 65 and 66 and 74; Creatinine [5, 11]: −12 (2×) and −6 and −15 and −4; Total bilirubin [5, 11]: −0.6 (2×) and −0.5 and −1.2 and −0.4; Total cholesterol [5, 11]: 3.35 and 3.21 and 3.34 and 3.53 and 3.14; Total protein [5, 11]: 70.1 and 65.6 and 66.7 and 73.8 and 65.7; Triglyceride [5, 11]: 2.10 and 1.80 and 2.53 and 2.17 and 2.24
6 | CCNc1nc(=S)c2cc([N+](=O)[O-])cc([N+](=O)[O-])c2s1 [Ic, 2-(ethylamino)-6,8-dinitro-4H-benzo[e][1,3]thiazine-4-thione] |  |  |  | 2 µg/mL (≈ 6.4 µM) | 8 µg/mL (≈ 25.6 µM) | > 500 µM |  |  | 
7 | NNC(=O)c1ccncc1 [Isoniazide, reference compound] | 0.0625 µg/mL (≈ 0.456 µM) | 0.0625 µg/mL (≈ 0.456 µM) |  |  |  |  | 0.8 µM |  | 
8 | O=[N+]([O-])c1cc([N+](=O)[O-])c2sc(N3CCOCC3)nc(=S)c2c1 [Ig, 2-morpholinyl-6,8-dinitro-4H-benzo[e][1,3]thiazine-4-thione] |  |  |  | 0.0625 µg/mL (≈ 0.176 µM) | 0.125 µg/mL (≈ 0.353 µM) | > 500 µM | 0.8 µM | equivalent to or even better than those of isoniazide | 
9 | O=[N+]([O-])c1cc(C(F)(F)F)cc2c(=S)nc(N3CCOCC3)sc12 [Ih, 2-morpholinyl-8-nitro-6-(trifluoromethyl)-4H-benzo[e][1,3]thiazine-4-thione] | 0.0312 µg/mL (≈ 0.0828 µM) | 0.0312 µg/mL (≈ 0.0828 µM) | > 500 µM |  |  |  | 0.8 µM | equivalent to or even better than those of isoniazide | 
